Measured values taken from ChEMBL document CHEMBL5291721, “A preclinical secondary pharmacology resource illuminates target-adverse drug reaction associations of marketed drugs” (Nat Commun, 2023).

What was measured:
[1] = target: D(3) dopamine receptor (Homo sapiens, UniProt P35462)
[2] = target: T1, Adenosine receptor A3 (Homo sapiens, UniProt P0DMS8)
T1 sequence (P0DMS8 whole entry): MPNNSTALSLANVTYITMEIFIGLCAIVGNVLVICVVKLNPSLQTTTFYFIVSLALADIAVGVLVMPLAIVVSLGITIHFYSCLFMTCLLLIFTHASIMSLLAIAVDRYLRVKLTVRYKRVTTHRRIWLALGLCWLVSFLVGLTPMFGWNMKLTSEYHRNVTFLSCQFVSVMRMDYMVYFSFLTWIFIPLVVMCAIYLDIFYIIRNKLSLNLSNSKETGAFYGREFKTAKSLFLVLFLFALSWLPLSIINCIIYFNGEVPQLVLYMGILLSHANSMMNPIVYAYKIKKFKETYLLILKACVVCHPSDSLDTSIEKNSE

[3] = target: T2, Alpha-2B adrenergic receptor (Homo sapiens, UniProt P18089)
T2 sequence (P18089 whole entry): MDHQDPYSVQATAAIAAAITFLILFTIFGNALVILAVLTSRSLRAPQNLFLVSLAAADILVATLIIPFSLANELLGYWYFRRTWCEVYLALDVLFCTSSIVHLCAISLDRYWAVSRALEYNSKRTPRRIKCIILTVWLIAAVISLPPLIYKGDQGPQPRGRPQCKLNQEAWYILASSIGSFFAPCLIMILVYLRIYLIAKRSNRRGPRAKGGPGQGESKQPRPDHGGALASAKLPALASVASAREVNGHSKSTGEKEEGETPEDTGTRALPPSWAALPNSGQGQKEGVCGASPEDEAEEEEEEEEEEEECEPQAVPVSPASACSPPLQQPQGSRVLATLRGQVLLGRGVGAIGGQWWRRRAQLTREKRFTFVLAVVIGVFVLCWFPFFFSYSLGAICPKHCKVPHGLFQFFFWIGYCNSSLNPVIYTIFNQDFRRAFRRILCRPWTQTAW

[4] = target: T3, Muscarinic acetylcholine receptor M2 (Homo sapiens, UniProt P08172); assay type: functional, cell-based
T3 sequence (P08172 whole entry): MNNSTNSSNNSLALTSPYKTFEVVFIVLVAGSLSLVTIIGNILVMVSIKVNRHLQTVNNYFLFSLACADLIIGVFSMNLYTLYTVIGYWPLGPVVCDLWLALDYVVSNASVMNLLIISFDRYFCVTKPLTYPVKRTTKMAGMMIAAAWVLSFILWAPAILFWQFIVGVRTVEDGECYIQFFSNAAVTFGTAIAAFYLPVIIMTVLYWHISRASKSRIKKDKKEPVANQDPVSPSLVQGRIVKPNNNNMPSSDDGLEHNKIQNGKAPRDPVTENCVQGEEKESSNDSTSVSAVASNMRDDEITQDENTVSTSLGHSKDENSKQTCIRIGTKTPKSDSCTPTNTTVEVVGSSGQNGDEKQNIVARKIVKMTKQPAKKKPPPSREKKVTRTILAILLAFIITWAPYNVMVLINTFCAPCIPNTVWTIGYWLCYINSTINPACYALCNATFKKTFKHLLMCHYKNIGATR

[5] = target: T4, Amine oxidase [flavin-containing] A (Homo sapiens, UniProt P21397); assay type: functional
T4 sequence (P21397 whole entry): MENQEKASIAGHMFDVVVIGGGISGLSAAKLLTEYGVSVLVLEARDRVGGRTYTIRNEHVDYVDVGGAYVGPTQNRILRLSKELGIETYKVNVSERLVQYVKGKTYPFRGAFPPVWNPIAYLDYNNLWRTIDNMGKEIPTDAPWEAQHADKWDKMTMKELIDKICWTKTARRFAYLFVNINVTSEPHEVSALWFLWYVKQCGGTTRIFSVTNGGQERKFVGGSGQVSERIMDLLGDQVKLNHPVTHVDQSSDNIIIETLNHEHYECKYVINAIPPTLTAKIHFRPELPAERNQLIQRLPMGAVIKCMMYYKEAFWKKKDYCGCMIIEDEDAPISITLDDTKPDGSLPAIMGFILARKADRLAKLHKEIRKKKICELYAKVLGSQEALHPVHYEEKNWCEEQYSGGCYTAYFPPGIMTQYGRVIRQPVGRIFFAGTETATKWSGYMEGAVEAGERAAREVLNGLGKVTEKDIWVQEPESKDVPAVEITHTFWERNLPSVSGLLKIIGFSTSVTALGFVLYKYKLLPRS

[6] = target: T5, Progesterone receptor (Homo sapiens, UniProt P06401); assay type: functional
T5 sequence (P06401 whole entry): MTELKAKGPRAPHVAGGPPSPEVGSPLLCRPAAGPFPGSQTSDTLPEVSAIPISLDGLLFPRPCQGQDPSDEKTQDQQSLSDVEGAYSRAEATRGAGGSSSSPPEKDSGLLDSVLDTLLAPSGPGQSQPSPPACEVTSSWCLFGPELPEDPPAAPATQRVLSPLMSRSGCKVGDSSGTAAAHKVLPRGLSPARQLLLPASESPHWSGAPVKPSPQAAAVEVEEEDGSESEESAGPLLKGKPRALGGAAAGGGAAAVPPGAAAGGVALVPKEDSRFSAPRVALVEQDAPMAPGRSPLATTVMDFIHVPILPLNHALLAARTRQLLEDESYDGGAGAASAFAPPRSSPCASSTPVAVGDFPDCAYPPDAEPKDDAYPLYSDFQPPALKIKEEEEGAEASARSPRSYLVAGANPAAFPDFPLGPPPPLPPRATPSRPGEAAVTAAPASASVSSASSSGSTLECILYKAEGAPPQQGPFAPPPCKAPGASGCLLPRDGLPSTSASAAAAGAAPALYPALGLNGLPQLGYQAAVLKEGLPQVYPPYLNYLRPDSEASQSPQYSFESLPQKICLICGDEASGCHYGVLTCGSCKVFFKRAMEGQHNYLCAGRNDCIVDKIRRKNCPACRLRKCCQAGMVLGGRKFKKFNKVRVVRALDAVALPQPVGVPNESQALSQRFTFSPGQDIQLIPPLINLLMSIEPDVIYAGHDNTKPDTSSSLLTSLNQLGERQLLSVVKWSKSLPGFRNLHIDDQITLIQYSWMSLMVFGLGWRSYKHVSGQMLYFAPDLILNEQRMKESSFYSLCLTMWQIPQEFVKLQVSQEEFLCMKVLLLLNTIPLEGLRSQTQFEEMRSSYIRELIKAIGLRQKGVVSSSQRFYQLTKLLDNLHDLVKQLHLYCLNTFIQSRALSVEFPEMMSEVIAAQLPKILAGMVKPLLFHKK

[7] = target: Gamma-aminobutyric acid receptor subunit alpha-1 (Rattus norvegicus, UniProt P62813); assay type: functional
[8] = target: Kappa-type opioid receptor (Homo sapiens, UniProt P41145)
[9] = target: Vasopressin V2 receptor (Homo sapiens, UniProt P30518)
[10] = target: Cannabinoid receptor 1 (Homo sapiens, UniProt P21554); assay type: functional, cell-based
Further: assay procedure not described here.

Vasopressin V2 receptor, sequence (P30518 whole entry): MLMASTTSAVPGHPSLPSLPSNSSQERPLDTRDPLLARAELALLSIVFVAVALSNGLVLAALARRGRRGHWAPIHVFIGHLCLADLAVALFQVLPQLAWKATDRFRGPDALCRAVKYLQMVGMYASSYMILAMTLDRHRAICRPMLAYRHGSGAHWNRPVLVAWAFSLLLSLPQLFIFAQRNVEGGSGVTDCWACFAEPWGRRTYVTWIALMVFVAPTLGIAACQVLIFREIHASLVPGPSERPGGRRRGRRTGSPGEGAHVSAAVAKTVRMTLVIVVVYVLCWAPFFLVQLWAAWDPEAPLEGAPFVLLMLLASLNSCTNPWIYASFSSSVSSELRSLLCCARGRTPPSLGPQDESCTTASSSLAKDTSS
Kappa-type opioid receptor, sequence (P41145 whole entry): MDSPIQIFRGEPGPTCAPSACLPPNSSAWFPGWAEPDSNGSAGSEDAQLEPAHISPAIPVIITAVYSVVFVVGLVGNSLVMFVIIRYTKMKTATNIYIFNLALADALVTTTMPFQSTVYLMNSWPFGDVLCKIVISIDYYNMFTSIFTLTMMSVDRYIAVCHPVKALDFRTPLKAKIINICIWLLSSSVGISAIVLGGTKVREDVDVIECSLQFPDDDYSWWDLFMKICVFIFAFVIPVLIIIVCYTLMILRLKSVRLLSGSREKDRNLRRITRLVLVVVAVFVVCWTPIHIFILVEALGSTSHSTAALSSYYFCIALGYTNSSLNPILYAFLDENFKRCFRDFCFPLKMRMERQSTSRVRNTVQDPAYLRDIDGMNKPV
Gamma-aminobutyric acid receptor subunit alpha-1, sequence (P62813 whole entry): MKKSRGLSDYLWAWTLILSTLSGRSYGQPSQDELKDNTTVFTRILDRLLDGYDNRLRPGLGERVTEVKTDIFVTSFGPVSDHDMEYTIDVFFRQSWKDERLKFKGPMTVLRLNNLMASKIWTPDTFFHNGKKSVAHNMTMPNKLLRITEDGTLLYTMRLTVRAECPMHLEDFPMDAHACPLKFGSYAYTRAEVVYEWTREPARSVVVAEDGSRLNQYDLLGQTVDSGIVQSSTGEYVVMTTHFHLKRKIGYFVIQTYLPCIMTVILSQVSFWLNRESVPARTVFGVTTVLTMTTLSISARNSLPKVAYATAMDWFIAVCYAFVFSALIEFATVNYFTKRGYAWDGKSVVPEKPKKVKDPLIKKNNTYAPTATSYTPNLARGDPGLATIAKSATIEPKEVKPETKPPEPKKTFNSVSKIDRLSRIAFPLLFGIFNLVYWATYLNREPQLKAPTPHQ
D(3) dopamine receptor, sequence (P35462 whole entry): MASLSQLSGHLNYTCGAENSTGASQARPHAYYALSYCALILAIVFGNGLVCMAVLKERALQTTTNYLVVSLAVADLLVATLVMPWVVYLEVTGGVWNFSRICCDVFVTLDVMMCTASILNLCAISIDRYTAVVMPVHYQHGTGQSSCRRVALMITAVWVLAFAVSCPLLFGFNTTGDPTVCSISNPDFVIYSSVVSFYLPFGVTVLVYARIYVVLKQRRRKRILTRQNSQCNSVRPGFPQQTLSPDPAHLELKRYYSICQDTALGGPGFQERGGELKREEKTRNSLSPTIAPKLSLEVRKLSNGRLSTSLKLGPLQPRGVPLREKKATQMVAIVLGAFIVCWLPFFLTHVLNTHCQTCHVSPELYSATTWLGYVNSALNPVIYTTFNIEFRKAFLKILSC
Cannabinoid receptor 1, sequence (P21554 whole entry): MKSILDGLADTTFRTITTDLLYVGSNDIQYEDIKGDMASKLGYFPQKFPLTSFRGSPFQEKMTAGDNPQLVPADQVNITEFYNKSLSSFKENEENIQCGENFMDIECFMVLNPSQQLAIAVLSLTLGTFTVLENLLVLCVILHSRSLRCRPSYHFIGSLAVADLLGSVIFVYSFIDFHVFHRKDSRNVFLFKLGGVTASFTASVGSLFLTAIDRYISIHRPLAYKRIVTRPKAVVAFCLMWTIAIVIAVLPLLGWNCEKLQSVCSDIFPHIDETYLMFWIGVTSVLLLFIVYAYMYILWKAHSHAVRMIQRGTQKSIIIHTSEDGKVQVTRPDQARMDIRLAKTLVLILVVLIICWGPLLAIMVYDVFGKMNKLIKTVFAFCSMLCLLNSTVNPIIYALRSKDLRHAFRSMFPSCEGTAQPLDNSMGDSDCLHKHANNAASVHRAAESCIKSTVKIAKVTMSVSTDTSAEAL

Row | SMILES | AC50 [1] | AC50 [2] | AC50 [3] | AC50 [4] | AC50 [5] | AC50 [6] | AC50 [7] | AC50 [8] | AC50 [9] | AC50 [10]
1 | CCC1(CC)C(=O)NCC(C)C1=O (stereo not given) [METHYPRYLON] | > 30 µM | > 30 µM | > 30 µM | > 30 µM | > 30 µM | > 30 µM | > 30 µM | > 30 µM | > 30 µM | > 30 µM
2 | CC(C)(C)C(=O)Oc1ccc(S(=O)(=O)Nc2ccccc2C(=O)NCC(=O)O)cc1 | > 30 µM | > 30 µM | > 30 µM | > 30 µM | > 30 µM | > 30 µM | > 30 µM | > 30 µM | > 30 µM | > 30 µM
3 | NCC(=O)CCC(=O)O [AMINOLEVULINIC ACID] | > 30 µM | > 30 µM | > 30 µM | > 30 µM | > 30 µM | > 30 µM | > 30 µM | > 30 µM | > 30 µM | > 30 µM
4 | CC(C)OC(=O)CCC/C=C\C[C@@H]1[C@@H](CC[C@@H](O)CCc2ccccc2)[C@H](O)C[C@@H]1O [LATANOPROST] | > 30 µM | > 30 µM | > 30 µM | > 30 µM | > 30 µM | > 30 µM | > 30 µM | > 30 µM | > 30 µM | > 30 µM
5 | CN1C(=O)C(O)N=C(c2ccccc2Cl)c2cc(Cl)ccc21 (stereo not given) [LORMETAZEPAM] | > 30 µM | > 30 µM | > 30 µM | 17 µM | > 30 µM | > 30 µM | 0.0014 µM | 8.1 µM | > 30 µM | > 30 µM
6 | O=C(O)CCCCCCNC1c2ccccc2CCc2ccccc21 [AMINEPTINE] | > 30 µM | > 30 µM | > 30 µM | > 30 µM | > 30 µM | > 30 µM | > 30 µM | > 30 µM | > 30 µM | > 30 µM
7 | CC(C[N+](C)(C)C)OC(N)=O (stereo not given) [BETHANECHOL] | > 30 µM | > 10 µM | > 10 µM | 3.9 µM | > 10 µM | > 10 µM | > 10 µM | > 10 µM | > 10 µM | > 30 µM
8 | O=C(O)/C=C/c1ccc(Cn2ccnc2)cc1 [OZAGREL] | > 30 µM | > 30 µM | > 30 µM | > 30 µM | > 30 µM | > 30 µM | > 30 µM | > 30 µM | > 30 µM | > 30 µM
9 | O=C(NCCNCC(O)COc1ccc(O)cc1)N1CCOCC1 (stereo not given) [XAMOTEROL] | > 30 µM | > 30 µM | > 30 µM | > 30 µM | > 30 µM | > 30 µM | > 30 µM | > 30 µM | > 30 µM | > 30 µM
